Results as given in ChEMBL document CHEMBL5512651, “Synthesis and biological evaluation of 4-imidazolidinone-containing compounds as potent inhibitors of the MDM2/p53 interaction” (Eur J Med Chem, 2024).
Active and inactive are the calls of the source. The calls are words filed in the database; no cut-off is given here.

What was measured:
[1] = target: Tumour suppressor protein p53/Mdm4 (Homo sapiens, UniProt O15151); test: Inhibition of MDM4/p53 (unknown origin) interaction by fluorescence polarization assay; assay type: protein assay
Sequence of Tumour suppressor protein p53/Mdm4 (P04637 whole entry): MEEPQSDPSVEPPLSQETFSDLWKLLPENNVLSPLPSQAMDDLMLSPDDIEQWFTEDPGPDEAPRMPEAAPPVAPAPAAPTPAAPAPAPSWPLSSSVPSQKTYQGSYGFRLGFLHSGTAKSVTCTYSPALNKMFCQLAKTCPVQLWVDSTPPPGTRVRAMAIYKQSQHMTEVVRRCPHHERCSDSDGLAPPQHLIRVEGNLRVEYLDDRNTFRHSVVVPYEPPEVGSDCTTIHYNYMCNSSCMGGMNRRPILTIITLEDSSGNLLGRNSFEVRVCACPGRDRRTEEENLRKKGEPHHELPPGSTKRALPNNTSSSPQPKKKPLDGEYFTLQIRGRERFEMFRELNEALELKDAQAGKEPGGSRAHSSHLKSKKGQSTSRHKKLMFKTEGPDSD
Sequence of Tumour suppressor protein p53/Mdm4 (O15151 whole entry): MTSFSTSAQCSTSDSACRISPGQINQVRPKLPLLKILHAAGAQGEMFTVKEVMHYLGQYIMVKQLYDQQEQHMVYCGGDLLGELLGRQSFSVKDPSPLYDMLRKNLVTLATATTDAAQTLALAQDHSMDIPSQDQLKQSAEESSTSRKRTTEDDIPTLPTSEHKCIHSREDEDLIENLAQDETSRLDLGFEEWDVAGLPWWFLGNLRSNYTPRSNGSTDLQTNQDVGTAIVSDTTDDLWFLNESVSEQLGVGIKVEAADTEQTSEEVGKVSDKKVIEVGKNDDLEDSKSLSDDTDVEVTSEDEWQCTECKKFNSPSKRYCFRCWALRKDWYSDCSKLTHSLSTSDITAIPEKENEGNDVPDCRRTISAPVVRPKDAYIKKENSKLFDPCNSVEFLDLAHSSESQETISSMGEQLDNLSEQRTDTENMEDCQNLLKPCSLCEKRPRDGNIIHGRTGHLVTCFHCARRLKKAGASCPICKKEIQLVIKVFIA

[2] = target: Cellular tumor antigen p53 (Homo sapiens) (UniProt P04637); test: Activation of p53 pathway in human HCT-116 cells assessed as increase in p21 level at 1 uM incubated for 24 hrs by Western blot analysis; assay type: cell-based; details: filed as activator
Sequence of Cellular tumor antigen p53 (Homo sapiens) (P04637 whole entry, looked up): as the sequence (P04637 whole entry) above

[3] = system: MOLM-13; test: Induction of apoptosis in human MOLM-13 cells assessed as increase in PARP cleavage at 0.15 to 0.6 uM incubated for 24 hrs by Western blot analysis; assay type: functional, cell-based; details: dose 0.15-0.6 µM
[4] = system: A549; test: cells; details: Homo sapiens, A549, 96 h
[5] = system: MOLM-13; test: Induction of apoptosis in human MOLM-13 cells assessed as late apoptotic cells at 0.9 uM incubated for 24 hrs by Annexin V-FITC/PI staining based flow cytometry (reference value: 0.457 %); assay type: functional
[6] = system: MOLM-13; test: Induction of apoptosis in human MOLM-13 cells assessed as viable cells at 2.7 uM incubated for 24 hrs by Annexin V-FITC/PI staining based flow cytometry (reference value: 95.1 %); assay type: functional; details: read-out: Activity
[7] = system: HCT-116; test: cells; details: Homo sapiens, HCT-116, 96 h
[8] = system: MOLM-13; test: Induction of apoptosis in human MOLM-13 cells assessed as viable cells at 0.3 uM incubated for 24 hrs by Annexin V-FITC/PI staining based flow cytometry (reference value: 95.1 %); assay type: functional; details: read-out: Activity
[9] = system: MOLM-13; test: Induction of apoptosis in human MOLM-13 cells assessed as viable cells at 24.3 uM incubated for 24 hrs by Annexin V-FITC/PI staining based flow cytometry (reference value: 95.1 %); assay type: functional; details: read-out: Activity
[10] = system: MOLM-13; test: Induction of apoptosis in human MOLM-13 cells assessed as late apoptotic cells at 8.1 uM incubated for 24 hrs by Annexin V-FITC/PI staining based flow cytometry (reference value: 0.457 %); assay type: functional
[11] = system: MOLM-13; test: Induction of apoptosis in human MOLM-13 cells assessed as early apoptotic cells at 0.1 uM incubated for 24 hrs by Annexin V-FITC/PI staining based flow cytometry (reference value: 4.44 %); assay type: functional
[12] = system: MOLM-13; test: Induction of apoptosis in human MOLM-13 cells assessed as increase in caspase-3 level at 0.15 to 0.6 uM incubated for 24 hrs by Western blot analysis; assay type: functional, cell-based; details: dose 0.15-0.6 µM
[13] = target: Cellular tumor antigen p53 (Homo sapiens) (UniProt P04637); test: Activation of p53 pathway in human HeLa cells assessed as increase in p53 level at 1 uM incubated for 24 hrs by Western blot analysis; assay type: cell-based
[14] = system: MOLM-13; test: Induction of apoptosis in human MOLM-13 cells assessed as early apoptotic cells at 0.3 uM incubated for 24 hrs by Annexin V-FITC/PI staining based flow cytometry (reference value: 4.44 %); assay type: functional
[15] = target: Cellular tumor antigen p53 (Homo sapiens) (UniProt P04637); test: Activation of p53 pathway in human A549 cells assessed as increase in MDM2 level at 1 uM incubated for 24 hrs by Western blot analysis; assay type: cell-based; details: filed as activator
[16] = system: MOLM-13; test: Induction of apoptosis in human MOLM-13 cells assessed as late apoptotic cells at 2.7 uM incubated for 24 hrs by Annexin V-FITC/PI staining based flow cytometry (reference value: 0.457 %); assay type: functional
[17] = system: MOLM-13; test: Induction of apoptosis in human MOLM-13 cells assessed as viable cells at 8.1 uM incubated for 24 hrs by Annexin V-FITC/PI staining based flow cytometry (reference value: 95.1 %); assay type: functional; details: read-out: Activity
[18] = system: MOLM-13; test: Induction of apoptosis in human MOLM-13 cells assessed as necrotic cells at 8.1 uM incubated for 24 hrs by Annexin V-FITC/PI staining based flow cytometry (reference value: 0.020 %); assay type: functional
[19] = system: SW480; test: cells; details: Homo sapiens, SW480, 96 h
[20] = Selectivity index, ratio of IC50 for HEK293 cells to IC50 for human A549 cells; assay type: toxicity; details: HEK293 cells versus A549 cells, read-out: Ratio IC50
[21] = system: MOLM-13; test: Induction of apoptosis in human MOLM-13 cells assessed as late apoptotic cells at 24.3 uM incubated for 24 hrs by Annexin V-FITC/PI staining based flow cytometry (reference value: 0.457 %); assay type: functional
[22] = Antiproliferative activity against HEK293 cells incubated for 4 days by CCK8 assay; assay type: toxicity, cell-based; details: human
[23] = target: Cellular tumor antigen p53 (Homo sapiens) (UniProt P04637); test: Activation of p53 pathway in human MOLM-13 cells assessed as increase in BAX mRNA level incubated for 24 hrs by qPCR analysis; assay type: cell-based; details: filed as activator, dose 0.038-0.6 µM
[24] = target: Cellular tumor antigen p53 (Homo sapiens) (UniProt P04637); test: Activation of p53 pathway in human A549 cells assessed as increase in p21 level at 1 uM incubated for 24 hrs by Western blot analysis; assay type: cell-based; details: filed as activator
[25] = system: MOLM-13; test: Induction of apoptosis in human MOLM-13 cells assessed as necrotic cells at 0.3 uM incubated for 24 hrs by Annexin V-FITC/PI staining based flow cytometry (reference value: 0.020 %); assay type: functional
[26] = target: Cellular tumor antigen p53 (Homo sapiens) (UniProt P04637); test: Activation of p53 pathway in human MOLM-13 cells assessed as increase in p53 level incubated for 24 hrs by Western blot analysis; assay type: cell-based; details: filed as activator, dose 0.038-0.6 µM
[27] = target: Cellular tumor antigen p53 (Homo sapiens) (UniProt P04637); test: Activation of p53 pathway in human MOLM-13 cells assessed as increase in p21 mRNA level incubated for 24 hrs by qPCR analysis; assay type: cell-based; details: filed as activator, dose 0.038-0.6 µM
[28] = target: Cellular tumor antigen p53 (Homo sapiens) (UniProt P04637); test: Activation of p53 pathway in human HCT-116 cells assessed as increase in MDM2 level at 1 uM incubated for 24 hrs by Western blot analysis; assay type: cell-based; details: filed as activator
[29] = system: MOLM-13; test: Induction of apoptosis in human MOLM-13 cells assessed as viable cells at 0.1 uM incubated for 24 hrs by Annexin V-FITC/PI staining based flow cytometry (reference value: 95.1 %); assay type: functional; details: read-out: Activity
[30] = system: HeLa; test: cells; details: Homo sapiens, 96 h
[31] = target: Cellular tumor antigen p53 (Homo sapiens) (UniProt P04637); test: Activation of p53 pathway in human MOLM-13 cells assessed as increase in MDM2 mRNA level incubated for 24 hrs by qPCR analysis; assay type: cell-based; details: filed as activator, dose 0.038-0.6 µM
[32] = system: MOLM-13; test: Induction of apoptosis in human MOLM-13 cells assessed as early apoptotic cells at 8.1 uM incubated for 24 hrs by Annexin V-FITC/PI staining based flow cytometry (reference value: 4.44 %); assay type: functional
[33] = system: MOLM-13; test: Induction of apoptosis in human MOLM-13 cells assessed as necrotic cells at 24.3 uM incubated for 24 hrs by Annexin V-FITC/PI staining based flow cytometry (reference value: 0.020 %); assay type: functional
[34] = target: Cellular tumor antigen p53 (Homo sapiens) (UniProt P04637); test: Activation of p53 pathway in human MOLM-13 cells assessed as increase in PUMA mRNA level incubated for 24 hrs by qPCR analysis; assay type: cell-based; details: filed as activator, dose 0.038-0.6 µM
[35] = system: MOLM-13; test: Induction of apoptosis in human MOLM-13 cells assessed as necrotic cells at 0.1 uM incubated for 24 hrs by Annexin V-FITC/PI staining based flow cytometry (reference value: 0.020 %); assay type: functional
[36] = system: MOLM-13; test: Induction of apoptosis in human MOLM-13 cells assessed as viable cells at 0.9 uM incubated for 24 hrs by Annexin V-FITC/PI staining based flow cytometry (reference value: 95.1 %); assay type: functional; details: read-out: Activity

Structure (SMILES): COc1cc(C(=O)O)ccc1N1CN2[C@@H](CC(C)(C)C)[C@@]3(CNc4cc(Cl)ccc43)[C@@H](c3cccc(Cl)c3)[C@@H]2C1=O
- Ki [1]: > 27 µM
- Activity [2]: Active
- Activity [3]: Active
- IC50 [4]: 0.184 µM
- Activity [5]: 1.06%
- viability at 2.7 µM [6]: 30.1%
- IC50 [7]: 0.0281 µM
- viability at 0.3 µM [8]: 74.5%
- viability at 24.3 µM [9]: 8.63%
- Activity [10]: 1.41%
- Activity [11]: 15.2%
- Activity [12]: Active
- Activity [13]: inactive
- Activity [14]: 24.4%
- Activity [15]: Active
- Activity [16]: 1.18%
- viability at 8.1 µM [17]: 27.4%
- Activity [18]: 0.176%
- IC50 [19]: 5.94 µM
- selectivity ratio [20]: 52
- Activity [21]: 1.96%
- IC50 at 4 days [22]: 9.65 µM
- Activity [23]: Dose-Dependent Effect
- Activity [24]: Active
- Activity [25]: 0.179%
- Activity [26]: Dose-Dependent Effect
- Activity [27]: Dose-Dependent Effect
- Activity [28]: Active
- viability at 0.1 µM [29]: 83.8%
- IC50 [30]: 12.3 µM
- Activity [31]: Dose-Dependent Effect
- Activity [32]: 71%
- Activity [33]: 0.047%
- Activity [34]: Dose-Dependent Effect
- Activity [35]: 0.124%
- viability at 0.9 µM [36]: 50%
